Results taken from patent US8895585B2, “Nicotinamide derivative or salt thereof” (FUJIFILM Corporation, priority 2010, dated 2014).

Experiments:
THP-1 cells = test: TNFα generation assay; type: cell-based, human; conditions: Homo sapiens, THP-1, THP-1 cells; Table 22; read-out: IC50 in TNFα generation assay
Procedure, shortened: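 Secreted TNFα in supernatant quantified by ELISA or AlphaLISA after 7 h culture on human IgG-coated wells (10 μg/ml coating). Cells were IFN-γ-differentiated THP-1 (10 ng/ml, 2 days), exposed to compound for 30 min at room temperature before plating.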

[1] = molecular target: T1, glutathione S-transferase (GST)-fused full-length human Syk protein (Homo sapiens, UniProt P43405); test: Syk enzyme assay; type: biochemical; conditions: Syk enzyme assay, Test Example 1; read-out: IC50 of Syk-inhibitory activity
T1 construct: (GST)-fused full-length human Syk protein; GST (glutathione S-transferase); purchased Carna Biosciences
Procedure, shortened: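 Baculovirus-expressed enzyme (1.2 ng) was preincubated with compound in HEPES pH 7.0/MgCl2/DTT buffer, 2 min shaking then 13 min at room temperature. Biotin-EDPDYEWPSA-NH2 (0.4 μM final) and ATP (27 μM final) were added for 40 min at room temperature. EDTA stop, streptavidin-XL/PT66-K TR-FRET at 615/665 nm gave IC50.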

Compound | IC50 (THP-1 cells) [nM] | IC50 [1] [nM]
CCC[C@@H](Nc1nc(Nc2ccc3nc(OCCOC)ccc3c2)c(C(N)=O)cc1F)[C@H](C)N [Example 006-303, 6-(((2S,3R)-2-aminohexan-3-yl)amino)-5-fluoro-2-((2-(2-methoxyethoxy)quinolin-6-yl)amino)nicotinamide] | 130 to 200 | < 10
NCC(CCC(F)(F)F)Nc1nc(Nc2ccc3ncccc3c2)c(C(N)=O)cc1F (stereo not drawn) [Example 006-304, 6-((1-amino-5,5,5-trifluoropentan-2-yl)amino)-5-fluoro-2-((quinolin-6-yl)amino)nicotinamide] | 130 to 200 | < 10
CCC[C@@H](Nc1nc(Nc2cccc3ncccc23)c(C(N)=O)cc1F)[C@H](C)N [Example 006-307, 6-(((2S,3R)-2-aminohexan-3-yl)amino)-5-fluoro-2-(quinolin-5-ylamino)nicotinamide] | 65 to 130 | < 10
CCC[C@@H](Nc1nc(Nc2ccc3scnc3c2)c(C(N)=O)cc1F)[C@H](C)N [Example 006-308, 6-(((2S,3R)-2-aminohexan-3-yl)amino)-2-(benzo[d]thiazol-5-ylamino)-5-fluoronicotinamide] | 65 to 130 | < 10
CCC[C@@H](Nc1nc(Nc2ccnc(OCC)c2)c(C(N)=O)cc1F)[C@H](C)N [Example 006-309, 6-(((2S,3R)-2-aminohexan-3-yl)amino)-2-((2-ethoxypyridin-4-yl)amino)-5-fluoronicotinamide] | 65 to 130 | < 10
CCC[C@@H](Nc1nc(Nc2ccc3c(cnn3CCOC)c2)c(C(N)=O)cc1F)[C@H](C)N [Example 006-314, 6-(((2S,3R)-2-aminohexan-3-yl)amino)-5-fluoro-2-((1-(2-methoxyethyl)-1H-indazol-5-yl)amino)nicotinamide] | < 65 | < 10
CC[C@@H](Nc1nc(Nc2ccnc(-c3cc(OC)ccc3F)c2)c(C(N)=O)cc1F)[C@H](C)N [Example 006-315, 6-(((2S,3R)-2-aminopentan-3-yl)amino)-5-fluoro-2-((2-(2-fluoro-5-methoxyphenyl)pyridin-4-yl)amino)nicotinamide] | < 65 | < 10
CC(C)C[C@H](CN)Nc1nc(Nc2cncc(-c3ccccc3F)c2)c(C(N)=O)cc1F [Example 006-316, (R)-6-((1-amino-4-methylpentan-2-yl)amino)-5-fluoro-2-((5-(2-fluorophenyl)pyridin-3-yl)amino)nicotinamide] | 130 to 200 | 10 to 50
COc1cccc(-c2cncc(Nc3nc(N[C@@H](CN)CC(C)C)c(F)cc3C(N)=O)c2)c1 [Example 006-317, (R)-6-((1-amino-4-methylpentan-2-yl)amino)-5-fluoro-2-((5-(3-methoxyphenyl)pyridin-3-yl)amino)nicotinamide] | 130 to 200 | < 10
COc1cccc(-c2cncc(Nc3nc(N[C@@H](CN)CC(C)C)c(F)cc3C(N)=O)c2)c1F [Example 006-318, (R)-6-((1-amino-4-methylpentan-2-yl)amino)-5-fluoro-2-((5-(2-fluoro-3-methoxyphenyl)pyridin-3-yl)amino)nicotinamide] | 130 to 200 | 10 to 50
CCCC[C@H](CN)Nc1nc(Nc2ccc3c(cnn3CC)c2)c(C(N)=O)cc1F [Example 006-323, (R)-6-((1-aminohexan-2-yl)amino)-2-((1-ethyl-1H-indazol-5-yl)amino)-5-fluoronicotinamide] | 65 to 130 | < 10
CC(C)C[C@H](CN)Nc1nc(Nc2ccnc(-c3ccccc3F)c2)c(C(N)=O)cc1F [Example 006-324, (R)-6-((1-amino-4-methylpentan-2-yl)amino)-5-fluoro-2-((2-(2-fluorophenyl)pyridin-4-yl)amino)nicotinamide] | 130 to 200 | < 10
CC[C@@H](Nc1nc(Nc2ccnc(-c3cccc(OC)c3)c2)c(C(N)=O)cc1F)[C@H](C)N [Example 006-330, 6-(((2S,3R)-2-aminopentan-3-yl)amino)-5-fluoro-2-((2-(3-methoxyphenyl)pyridin-4-yl)amino)nicotinamide] | < 65 | < 10
CCC[C@@H](Nc1nc(Nc2ccnc(-c3ccccc3F)c2)c(C(N)=O)cc1F)[C@H](C)N [Example 006-333, 6-(((2S,3R)-2-aminohexan-3-yl)amino)-5-fluoro-2-((2-(2-fluorophenyl)pyridin-4-yl)amino)nicotinamide] | 65 to 130 | < 10
CCC[C@@H](Nc1nc(Nc2ccnc(-c3ccc(OC)cc3)c2)c(C(N)=O)cc1F)[C@H](C)N [Example 006-335, 6-(((2S,3R)-2-aminohexan-3-yl)amino)-5-fluoro-2-((2-(4-methoxyphenyl)pyridin-4-yl)amino)nicotinamide] | 130 to 200 | < 10
COCCn1ncc2cc(Nc3nc(N[C@H](CC4CC4)[C@H](C)N)c(F)cc3C(N)=O)ccc21 [Example 006-343, 6-(((2R,3S)-3-amino-1-cyclopropylbutan-2-yl)amino)-5-fluoro-2-((1-(2-methoxyethyl)-1H-indazol-5-yl)amino)nicotinamide] | 65 to 130 | < 10
C[C@H](N)[C@@H](CC1CC1)Nc1nc(Nc2ccc3c(cnn3C)c2)c(C(N)=O)cc1F [Example 006-345, 6-(((2R,3S)-3-amino-1-cyclopropylbutan-2-yl)amino)-5-fluoro-2-((1-methyl-1H-indazol-5-yl)amino)nicotinamide] | 65 to 130 | < 10
COc1ccc2cc(Nc3nc(N[C@H](CC4CC4)[C@H](C)N)c(F)cc3C(N)=O)cnc2c1 [Example 006-346, 6-(((2R,3S)-3-amino-1-cyclopropylbutan-2-yl)amino)-5-fluoro-2-((7-methoxyquinolin-3-yl)amino)nicotinamide] | 130 to 200 | < 10
C[C@H](N)[C@@H](CC1CC1)Nc1nc(Nc2ccc3scnc3c2)c(C(N)=O)cc1F [Example 006-348, 6-(((2R,3S)-3-amino-1-cyclopropylbutan-2-yl)amino)-2-(benzo[d]thiazol-5-ylamino)-5-fluoronicotinamide] | 65 to 130 | 10 to 50

Next, values leading:

IC50 (THP-1 cells) [nM] | IC50 [1] [nM] | Compound
65 to 130 | < 10 | CCC[C@@H](Nc1nc(Nc2ccc3nc(C)c(C)nc3c2)c(C(N)=O)cc1F)[C@H](C)N [Example 006-306, 6-(((2S,3R)-2-aminohexan-3-yl)amino)-2-((2,3-dimethylquinoxalin-6-yl)amino)-5-fluoronicotinamide]
65 to 130 | < 10 | CCC[C@@H](Nc1nc(Nc2ccnc(OCCOC)c2)c(C(N)=O)cc1F)[C@H](C)N [Example 006-310, 6-(((2S,3R)-2-aminohexan-3-yl)amino)-5-fluoro-2-((2-(2-methoxyethoxy)pyridin-4-yl)amino)nicotinamide]
65 to 130 | < 10 | CCC[C@@H](Nc1nc(Nc2cncc(C)c2)c(C(N)=O)cc1F)[C@H](C)N [Example 006-312, 6-(((2S,3R)-2-aminohexan-3-yl)amino)-5-fluoro-2-((5-methylpyridin-3-yl)amino)nicotinamide]
65 to 130 | < 10 | CC[C@@H](Nc1nc(Nc2ccc3c(cnn3CCOC)c2)c(C(N)=O)cc1F)[C@H](C)N [Example 006-313, 6-(((2S,3R)-2-aminopentan-3-yl)amino)-5-fluoro-2-((1-(2-methoxyethyl)-1H-indazol-5-yl)amino)nicotinamide]
130 to 200 | < 10 | COc1ccc(F)c(-c2cc(Nc3nc(N[C@@H](CN)CC(C)C)c(F)cc3C(N)=O)ccn2)c1 [Example 006-321, (R)-6-((1-amino-4-methylpentan-2-yl)amino)-5-fluoro-2-((2-(2-fluoro-5-methoxyphenyl)pyridin-4-yl)amino)nicotinamide]
< 65 | < 10 | CC[C@@H](Nc1nc(Nc2ccnc(-c3ccccc3F)c2)c(C(N)=O)cc1F)[C@H](C)N [Example 006-329, 6-(((2S,3R)-2-aminopentan-3-yl)amino)-5-fluoro-2-((2-(2-fluorophenyl)pyridin-4-yl)amino)nicotinamide]
65 to 130 | < 10 | CC[C@@H](Nc1nc(Nc2ccnc(-c3ccc(OC)cc3)c2)c(C(N)=O)cc1F)[C@H](C)N [Example 006-331, 6-(((2S,3R)-2-aminopentan-3-yl)amino)-5-fluoro-2-((2-(4-methoxyphenyl)pyridin-4-yl)amino)nicotinamide]
< 65 | < 10 | CC[C@@H](Nc1nc(Nc2ccnc(-c3ccc(OC)cc3F)c2)c(C(N)=O)cc1F)[C@H](C)N [Example 006-332, 6-(((2S,3R)-2-aminopentan-3-yl)amino)-5-fluoro-2-((2-(2-fluoro-4-methoxyphenyl)pyridin-4-yl)amino)nicotinamide]
65 to 130 | < 10 | CCC[C@@H](Nc1nc(Nc2ccnc(-c3cccc(OC)c3)c2)c(C(N)=O)cc1F)[C@H](C)N [Example 006-334, 6-(((2S,3R)-2-aminohexan-3-yl)amino)-5-fluoro-2-((2-(3-methoxyphenyl)pyridin-4-yl)amino)nicotinamide]
130 to 200 | < 10 | CCC[C@@H](Nc1nc(Nc2ccnc(-c3ccc(OC)cc3F)c2)c(C(N)=O)cc1F)[C@H](C)N [Example 006-336, 6-(((2S,3R)-2-aminohexan-3-yl)amino)-5-fluoro-2-((2-(2-fluoro-4-methoxyphenyl)pyridin-4-yl)amino)nicotinamide]
65 to 130 | 10 to 50 | CCCC[C@H](CN)Nc1nc(Nc2ccc3c(cnn3CCOC)c2)c(C(N)=O)cc1F [Example 006-338, (R)-6-((1-aminohexan-2-yl)amino)-5-fluoro-2-((1-(2-methoxyethyl)-1H-indazol-5-yl)amino)nicotinamide]
